Earlier results, collected in paper PMC3433420 (PLoS ONE, 2012).
Read-outs that look alike come from different tables or passages of the source.

Biological target: SH2 and PTB domains
Conditions: ref Jones et al. 2006 / Kaushansky et al. Mol Biosys 2008 / Kaushansky et al. Chem and Biol 2008, cited from earlier work
Description: Supplement pone.0044471.s022.xlsx, sheet "Most recent PM interactions" | column: Kd || Supplement pone.0044471.s022.xlsx, sheet "All original PM interactions" | column: Kd

MDDVVDADEpYLIPQQGFd [ErbB1 1016]
Kd (Protein ABL2, most recent PM interactions): 280 nM
Kd (Protein BLK, most recent PM interactions): 660 nM
Kd (Protein CRK, most recent PM interactions): 470 nM
Kd (Protein CRKL, most recent PM interactions): 1000 nM
Kd (Protein NCK1, most recent PM interactions): 1000 nM
Kd (Protein PIK3R1-C, most recent PM interactions): 870 nM
Kd (Protein PIK3R1-N, most recent PM interactions): 900 nM
Kd (Protein PIK3R1-NC, most recent PM interactions): 180 nM
Kd (Protein PIK3R2-N, most recent PM interactions): 420 nM
Kd (Protein PIK3R2-NC, most recent PM interactions): 350 nM
Kd (Protein PIK3R3-C, most recent PM interactions): 190 nM
Kd (Protein PIK3R3-N, most recent PM interactions): 720 nM
Kd (Protein PIK3R3-NC, most recent PM interactions): 200 nM
Kd (Protein PLCG1-NC, most recent PM interactions): 790 nM
Kd (Protein PTPN11-N, most recent PM interactions): 380 nM
Kd (Protein RASA1-N, most recent PM interactions): 490 nM
Kd (Protein RASA1-NC, most recent PM interactions): 1420 nM
Kd (Protein SHB, most recent PM interactions): 1990 nM
Kd (Protein SHC1-PTB, most recent PM interactions): 630 nM
Kd (Protein SHC2-PTB, most recent PM interactions): 660 nM
Kd (Protein SHC3, most recent PM interactions): 220 nM
Kd (Protein SYK-C, most recent PM interactions): 930 nM
Kd (Protein SYK-NC, most recent PM interactions): 610 nM
Kd (Protein TNS4, most recent PM interactions): 920 nM
Kd (Protein VAV1, most recent PM interactions): 1050 nM
Kd (Protein VAV2, most recent PM interactions): 85 nM

DNPDpYQQDFFPKd [ErbB1 pY1172, N-terminally rhodamine-labeled 13-mer phosphopeptide]
Kd (protein ABL2): 490 nM
Kd (protein BCAR3): 300 nM
Kd (protein BLK): 750 nM
Kd (protein CRK): 410 nM
Kd (protein FGR): 550 nM
Kd (protein GRB10): 1290 nM
Kd (protein GRB14): 1250 nM
Kd (protein ITK): 1410 nM
Kd (protein LYN): 1590 nM
Kd (protein NCK2): 380 nM
Kd (protein PIK3R1-N): 400 nM
Kd (protein PIK3R1-NC): 550 nM
Kd (protein PIK3R2-N): 390 nM
Kd (protein PIK3R2-NC): 320 nM
Kd (protein PIK3R3-NC): 850 nM
Kd (protein PLCG2-N): 840 nM
Kd (protein PLCG2-NC): 670 nM
Kd (protein RASA1-N): 1140 nM
Kd (protein RASA1-NC): 1170 nM
Kd (protein SH2B3): 1600 nM
Kd (protein SH2B): 1820 nM
Kd (protein SH2D3C): 1910 nM
Kd (protein SHB): 1790 nM
Kd (protein SHC1-PTB): 40 nM
Kd (protein SHC2-PTB): 1310 nM
Kd (protein SLA): 2000 nM
Kd (protein SRC): 470 nM
Kd (protein SUPT6H): 1030 nM
Kd (protein SYK-C): 870 nM
Kd (protein SYK-NC): 1280 nM
Kd (protein TNS3): 740 nM
Kd (protein TNS4): 330 nM
Kd (protein VAV2): 220 nM
Kd (protein VAV3): 2000 nM
Kd (protein YES1): 100 nM
